Measurements taken from patent publication US10344026B2, “Compositions and methods of targeting mutant K-ras” (NANTBIO, INC., priority 2017, dated 2019).

Columns and labels:
Type in all cases: cell-based
[1] = test system: Panc1-G12D; experiment: Viability assay (CellTiterBlue, 72 hr) Panc1; conditions: Homo sapiens, PANC-1, GI50, CellTiterBlue, Panc1 K-Ras G12D, read-out: 72 hr Cell Viability Panc1 (G12D)
Method in brief: (§1)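 1000 cells/well, 18 hr pre-incubation at 37 °C; compound added from DMSO stock, 0.5% DMSO final; 72 hr; CellTiterBlue 3 hr, fluorescence Ex550/Em590; GI50 normalized to DMSO = 100%, 100 uM tamoxifen = 0% viability.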

[2] = test system: U87-MG (K-Ras wild type cell line); experiment: Viability assay (CellTiterBlue, 72 hr) U87-MG; conditions: Homo sapiens, U-87 MG, GI50, CellTiterBlue, U87-MG K-Ras wild-type
Method in brief: as §1

[3] = test system: phospho-Akt in Panc1 (G12D); experiment: In-Cell Western phospho-Akt, Panc1; conditions: Homo sapiens, PANC-1, 1 h; Panc1, one hour treatment; read-out: In-Cell Western Panc1 (G12D) Akt (P)
Method in brief: (§2)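 Cells were seeded at 3000 cells/well, incubated 18 hr at 37° C, then treated with compound for 1 hr (0.5% DMSO final). After fixation, permeabilization and blocking, phospho-Akt or phospho-ERK antibodies were applied overnight at 4° C, followed by secondary antibody; cellular fluorescence was imaged and EC50 calculated.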

[4] = test system: phospho-ERK in HCC827 (Wild-type); experiment: In-Cell Western phospho-ERK, HCC827; conditions: Homo sapiens, 1 h; HCC827, one hour treatment; read-out: In-Cell Western HCC827 (Wild-type) Erk (P)
Method in brief: as §2

[5] = test system: Panc10.05-G12D; experiment: Viability assay (CellTiterBlue, 72 hr) Panc10.05; conditions: Homo sapiens, Panc1005, GI50, CellTiterBlue, Panc10.05 K-Ras G12D, read-out: 72 hr Cell Viability Panc10.05 (G12D)
Method in brief: as §1

[6] = test system: Ishikawa (K-Ras wild type cell line); experiment: Viability assay (CellTiterBlue, 72 hr) Ishikawa; conditions: Homo sapiens, GI50, CellTiterBlue, Ishikawa K-Ras wild-type
Method in brief: as §1

[7] = test system: HCT116-G31D; experiment: Viability assay (CellTiterBlue, 72 hr) HCT116; conditions: Homo sapiens, HCT-116, GI50, CellTiterBlue, HCT116 K-Ras G13D, read-out: 72 hr Cell Viability HCT116 (G13D)
Method in brief: as §1

[8] = test system: phospho-Akt in HCC827 (Wild-type); experiment: In-Cell Western phospho-Akt, HCC827; conditions: Homo sapiens, 1 h; HCC827, one hour treatment; read-out: In-Cell Western HCC827 (Wild-type) Akt (P)
Method: In-cell phosphorylation assays for Erk and Akt were performed on several of the compounds and exemplary results are shown in Table 3 below using HCC827 and A375 cell lines for wild type K-Ras and Panc1 and Panc10.05 cell lines for G12D K-Ras mutants. Results are expressed in μM and corresponding structures are shown in FIGS. 2A-2G and Examples 1-152, above.
Cells are seeded in complete medium into black sided, clear-bottom 384-well microplates at 3000 cells/[…]/well. Plates are returned to 37° C. CO2 incubator for 18 hr. Drug is made as 200× in DMSO and diluted into medium to 10×. To each well is added 4 ul 10× test article or controls, and plates are returned to the incubator. Final assay DMSO concentration is 0.5%. After one hour, cells are fixed in formaldehyde, rinsed & permeabilized with triton X-100, and blocked with BSA/Goat serum blocking solution. Primary phospho-Akt and phospho-ERK antibodies are added and plates are incubated overnight at 4° C. Plates are rinsed with Tween-20 wash buffer and secondary antibody (Goat anti-rabbit, Thermofisher) is added. After 2 hours, plates are rinsed in Tween-20 wash buffer, and then PBS. Plates are imaged on the Celigo (Nexcelom) and cellular fluorescence is quantitated. Full inhibition of phospho-Akt is achieved with 1 uM BEZ235 (Sellekchem), while full inhibition of phospho-ERK is achieved with 1 uM MEK Inhibitor II Calbiochem). EC50 values are calculated using Graphpad Prism.

[9] = test system: phospho-ERK in Panc1 (G12D); experiment: In-Cell Western phospho-ERK, Panc1; conditions: Homo sapiens, PANC-1, 1 h; Panc1, one hour treatment; read-out: In-Cell Western Panc1 (G12D) Erk (P)
Method in brief: as §2

[10] = test system: HCC827 (K-Ras wild type cell line); experiment: Viability assay (CellTiterBlue, 72 hr) HCC827; conditions: Homo sapiens, GI50, CellTiterBlue, HCC827 K-Ras wild-type
Method in brief: as §1

[11] = target: T1, K-Ras G12D (Homo sapiens, UniProt P01116, G12D); experiment: G-LISA Ras activation, 293H cells transfected with G12D mutant; conditions: compound 1 hour
T1 construct: expressed in transfected cells; host or cells: 293H cells
Method in brief: (§3)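 Cells: 293H, Ras plasmid transfection (5 μg). Cpd 3.125-25 μM, 1 h; WT cells + EGF 100 ng/ml, 2 min. Lysed on ice; active Ras by G-LISA.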

[12] = test system: A375 (K-Ras wild type cell line); experiment: Viability assay (CellTiterBlue, 72 hr) A375; conditions: Homo sapiens, A-375, GI50, CellTiterBlue
Method in brief: as §1

[13] = test system: phospho-Akt in A375 (Wild-type); experiment: In-Cell Western phospho-Akt, A375; conditions: Homo sapiens, A-375, 1 h; A375, one hour treatment; read-out: In-Cell Western A375 (Wild-type) Akt (P)
Method in brief: as §2

[14] = test system: phospho-ERK in Panc10.05 (G12D); experiment: In-Cell Western phospho-ERK, Panc10.05; conditions: Homo sapiens, Panc1005, 1 h; Panc10.05, one hour treatment; read-out: In-Cell Western Panc10.05 (G12D) Erk (P)
Method in brief: as §2

[15] = target: T2, wild type K-Ras (Homo sapiens, UniProt P01116); experiment: G-LISA Ras activation, 293H cells transfected with Ras wild-type, EGF stimulated; conditions: compound 1 hour, then 100 ng/ml EGF 2 minutes
T2 construct: expressed in transfected cells; host or cells: 293H cells
Method in brief: as §3

[16] = test system: phospho-ERK in A375 (Wild-type); experiment: In-Cell Western phospho-ERK, A375; conditions: Homo sapiens, A-375, 1 h; A375, one hour treatment; read-out: In-Cell Western A375 (Wild-type) Erk (P)
Method in brief: as §2

[17] = test system: phospho-Akt in Panc10.05 (G12D); experiment: In-Cell Western phospho-Akt, Panc10.05; conditions: Homo sapiens, Panc1005, 1 h; Panc10.05, one hour treatment; read-out: In-Cell Western Panc10.05 (G12D) Akt (P)
Method in brief: as §2

T1 sequence (P01116 whole entry G12D): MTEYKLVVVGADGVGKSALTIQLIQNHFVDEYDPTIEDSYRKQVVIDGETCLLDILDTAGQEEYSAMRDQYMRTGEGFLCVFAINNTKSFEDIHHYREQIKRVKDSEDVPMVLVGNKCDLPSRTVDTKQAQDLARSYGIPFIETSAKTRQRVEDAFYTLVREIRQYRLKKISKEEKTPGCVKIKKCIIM
T2 sequence (P01116 whole entry): as the sequence (P01116 whole entry G12D) above, with D12G counted along it

Compound	IC50 [1] [µM]	IC50 [2] [µM]	EC50 [3] [µM]	EC50 [4] [µM]	IC50 [5] [µM]	IC50 [6] [µM]	IC50 [7] [µM]	EC50 [8] [µM]	EC50 [9] [µM]	IC50 [10] [µM]	IC50 [11] [µM]	IC50 [12] [µM]	EC50 [13] [µM]	EC50 [14] [µM]	IC50 [15] [µM]	EC50 [16] [µM]	EC50 [17] [µM]
Cn1cc(C(=O)Nc2nc(-c3ccc4c(c3)CCC(=O)N4)cs2)c(C(C)(C)C)n1 [Compound 38, 3-(tert-butyl)-1-methyl-N-(4-(2-oxo-1,2,3,4-tetrahydroquinolin-6-yl)thiazol-2-yl)-1H-pyrazole-4-carboxamide]	> 25	> 25	24	13	7	7	> 25	> 25	> 25	> 25	–	–	–	–	–	–	–
Cn1cc(C(=O)Nc2nc(-c3ccc4c(c3)CCC(=O)N4)cs2)c(-c2ccccc2)n1 [Compound 29, 1-methyl-N-(4-(2-oxo-1,2,3,4-tetrahydroquinolin-6-yl)thiazol-2-yl)-3-phenyl-1H-pyrazole-4-carboxamide]	> 25	> 25	> 25	21	> 25	> 25	> 25	> 25	13	> 25	–	–	–	–	–	–	–
Cc1nn(-c2ccccc2)cc1C(=O)Nc1nc(-c2ccc3c(c2)CCC(=O)N3)cs1 [Compound 31, 3-methyl-N-(4-(2-oxo-1,2,3,4-tetrahydroquinolin-6-yl)thiazol-2-yl)-1-phenyl-1H-pyrazole-4-carboxamide]	> 25	> 25	> 25	> 25	> 25	> 25	> 25	> 25	> 25	> 25	–	–	–	–	–	–	–
Cn1cc(C(=O)Nc2nc(-c3ccc4c(c3)CCC(=O)N4)cs2)c(C(F)F)n1 [Compound 27, 3-(difluoromethyl)-1-methyl-N-(4-(2-oxo-1,2,3,4-tetrahydroquinolin-6-yl)thiazol-2-yl)-1H-pyrazole-4-carboxamide]	> 25	> 25	> 25	> 25	16	> 25	> 25	> 25	14	> 25	–	–	–	–	–	–	–
Cn1ncc(C(=O)Nc2nc(-c3ccc4c(c3)CCC(=O)N4)cs2)c1C1CC1 [Compound 35, 5-cyclopropyl-1-methyl-N-(4-(2-oxo-1,2,3,4-tetrahydroquinolin-6-yl)thiazol-2-yl)-1H-pyrazole-4-carboxamide]	> 25	6	> 25	11	> 25	19	> 25	> 25	> 25	7	> 25	–	–	–	–	–	–
COc1nn(C)cc1C(=O)Nc1nc(-c2ccc3c(c2)CCC(=O)N3)cs1 [Compound 42, 3-methoxy-1-methyl-N-(4-(2-oxo-1,2,3,4-tetrahydroquinolin-6-yl)thiazol-2-yl)-1H-pyrazole-4-carboxamide]	> 25	> 25	> 25	> 25	> 25	> 25	> 25	> 25	> 25	> 25	–	–	–	–	–	–	–
CCn1cc(C(=O)Nc2nc(-c3ccc4c(c3)CCC(=O)N4)cs2)c(C(F)(F)F)n1 [Compound 39, 1-ethyl-N-(4-(2-oxo-1,2,3,4-tetrahydroquinolin-6-yl)thiazol-2-yl)-3-(trifluoromethyl)-1-pyrazole-4-carboxamide]	> 25	> 25	> 25	> 25	> 25	> 25	> 25	> 25	28	> 25	–	–	–	–	–	–	–
CC(C)c1nn(C)cc1C(=O)Nc1nc(-c2ccc3c(c2)CCC(=O)N3)cs1 [Compound 32, 3-isopropyl-1-methyl-N-(4-(2-oxo-1,2,3,4-tetrahydroquinolin-6-yl)thiazol-2-yl)-1H-pyrazole-4-carboxamide]	> 25	9	26	20	> 25	> 25	> 25	> 25	> 25	8	–	–	–	–	–	–	–
Cn1cc(C(=O)Nc2nc(-c3ccc4c(c3)CCC(=O)N4)cs2)cn1 [Compound 28, 1-methyl-N-(4-(2-oxo-1,2,3,4-tetrahydroquinolin-6-yl)thiazol-2-yl)-1H-pyrazole-4-carboxamide]	> 25	> 25	> 25	16	> 25	> 25	> 25	> 25	> 25	> 25	–	–	–	–	–	–	–
COc1cccc(CN2C(=O)CCc3cc(-c4csc(NC(=O)c5oc(C)nc5C)n4)ccc32)c1OC [Compound 93, N-(4-(1-(2,3-dimethoxybenzyl)-2-oxo-1,2,3,4-tetrahydroquinolin-6-yl)thiazol-2-yl)-2,4-dimethyloxazole-5-carboxamide]	9	> 25	6	> 25	5	> 25	4	–	8	> 25	8.6	> 25	> 25	1.2	10	> 25	15
Cc1nc(C(C)C)sc1C(=O)Nc1nc(-c2ccc3c(c2)CCC(=O)N3Cc2cccnc2)cs1 [Compound 107, 2-isopropyl-4-methyl-N-(4-(2-oxo-1-(pyridin-3-ylmethyl)-1,2,3,4-tetrahydroquinolin-6-yl)thiazol-2-yl)thiazole-5-carboxamide]	> 25	> 25	> 25	6	2	> 25	6	–	6	> 25	6.6	19	> 25	10	9.7	16	> 25
